We go through six molecules from article PMC9738591, “N-[1,3-Dialkyl(aryl)-2-oxoimidazolidin-4-ylidene]-aryl(alkyl)sulphonamides as Novel Selective Human Cannabinoid Type 2 Receptor (hCB2R) Ligands; Insights into the Mechanism of Receptor Activation/Deactivation” (Molecules, 2022).

For data set [1], the target named is T1, human CB2R (Homo sapiens, UniProt P34972). Nature of the data set: cAMP Hunter assay, effect on NKH-477-induced cAMP levels (agonist mode). As to conditions: for Effect on NKH-477-induced cAMP levels (functional behavior): CHO-K1 cells overexpressing human CB2R, compound alone; for EC50: stable CHO cells expressing the human CB2, read-out: EC50, reduction of NKH-477-induced cAMP levels. The class given is cell-based. As to the method:
The above-mentioned compounds were tested for their functional activity.
Gi-coupled cAMP modulation was measured following the manufacturer’s protocol (Eurofins, Fremont, CA, USA), as previously reported. Briefly, CHO-K1 cells overexpressing the human CB2R were plated into a 96-well plate (10,000 cells/well) and incubated overnight at 37 °C, 5% CO2. Media was aspirated and replaced with 30 μL of assay buffer. Cells were incubated for 30 min at 37 °C with 15 μL of 3× dose−response solutions of samples prepared in the presence of a cell assay buffer containing 3× of 25 μM NKH-477 solution to stimulate adenylate cyclase and enhance basal cAMP levels. For those compounds not showing a decrease in cAMP levels, the effect upon receptor activation in the presence of the JWH-133 selective agonist was investigated. Cells were pre-incubated with samples (15 min at 37 °C at 6× the final desired concentration), followed by 30 min incubation with the JWH-133 agonist challenge at the EC80 concentration (EC80 = 4 μM, previously determined in separate experiments) in the presence of NKH-477 to stimulate adenylate cyclase and enhance cAMP levels. Cell lysis and cAMP detection were performed as per the manufacturer’s protocol. Luminescence measurements were performed using a GloMax Multi Detection System (Promega, Italy). Data are reported as the means ± SEM of three independent experiments conducted in triplicate and were normalized considering the NKH-477 stimulus alone as 100% of the response. Data were analyzed using PRISM.9.3 software (GraphPad Software Inc, San Diego, CA, USA).
Figure 7 Concentration-response curves of compounds in the cAMP Hunter assay. Curves show the effect of increasing concentrations of compounds on NKH-477-induced cAMP levels in stable CHO cells expressing the human CB2. Data are reported as the means ± SEM of three independent experiments conducted in triplicate, normalized to the maximal and minimal responses.

Data set [2] deals with T1, human CB2R. Kind of data set: Competition binding assay, displacement of [3H]-CP-55,940 from membranes of HEK-293 cells overexpressing CB2R. Particulars: for Ki: [3H]-CP-55,940 displacement, HEK-293 membranes, 90 min at 30 °C, Cheng-Prusoff, read-out: Ki hCB2R (µM ± S.E.); for inhibition at 25 µM: max conc. tested 25 µM; for inhibition at 25 µM / inhibition at 10 µM: read-out: % Displacement/ Max Conc. Tested, hCB2R (converted); for inhibition at 10 µM: max conc. tested 10 µM. Also noted: purchased Perkin-Elmer, Italy; host or cells: HEK-293 cells (membranes). Here is the method:
(§1) The binding affinities (Ki values) of the compounds for human recombinant hCB1R and hCB2R were determined as previously described, using SR144528 as a reference compound [30], and are reported in Table 1.
(§2) Compound affinity for CB1R and CB2R was measured as previously reported. […] Competition curves were performed by displacing [^3H]-CP-55 940 with increasing concentrations of compounds (0.1 nM–10 or 25 μM). […] All compounds were tested following the procedure described by the manufacturer (Perkin-Elmer, Italy). Displacement curves were generated by incubating drugs with [^3H]-CP-55 940 for 90 min at 30 °C. Ki values were calculated by applying the Cheng−Prusoff equation to the IC50 values for the displacement of the bound radioligand by increasing concentrations of the test compound. Data represent the mean values of three independent experiments performed in duplicate and are expressed as the average of Ki (µM) ± standard deviation. Data were analyzed using PRISM.9.3 software (GraphPad Software Inc, San Diego, CA, USA).
On the technique in general: In a radioligand displacement assay an active substance lowers the binding of a labelled ligand.

In the next data set the target is T2, human recombinant CB1R (Homo sapiens, UniProt P21554).
T2 construct: purchased Perkin-Elmer, Italy; host or cells: HEK-293 cells (membranes)
Nature of the data set: Competition binding assay, displacement of [3H]-CP-55,940 from membranes of HEK-293 cells overexpressing CB1R. Particulars: for Ki: [3H]-CP-55,940 displacement, HEK-293 membranes, 90 min at 30 °C, Cheng-Prusoff, read-out: Ki hCB1R (µM ± S.E.); for inhibition at 10 µM / inhibition at 25 µM: read-out: % Displacement/ Max. Conc. Tested, hCB1R. As to the method: as §1, §2

Data set [3] is described as follows: Maximum concentration reached in the functional assay buffer, by UV absorption and HPLC. In kind it is physicochemical. As to conditions: measured by UV absorption and HPLC. Here is the method:
(§3) Only a small displacement was observed and only at the highest concentration (Figure 8). We reasoned that the discrepancy with the predictions was mainly due to the chemical–physical features of the molecule and that the lack of antagonism was caused by issues related to compound solubility in the buffer used for the assay. Indeed, the maximum concentration of 12b that could be reached in the buffer solution used for the functional assay, measured by UV absorption as well as by HPLC, was 2.3 µM.

Data set [4] concerns the target T1, human CB2R. Kind of data set: cAMP Hunter assay in the presence of JWH-133 agonist challenge (antagonist mode). The class given is cell-based. As to conditions: for Antagonism of JWH-133-induced inhibition of NKH-477-induced cAMP formation: JWH-133 4 µM (EC80) agonist challenge. Here is the method:
as §3
In general terms: Cyclic AMP is a second messenger, typically raised through Gs and lowered through Gi signalling.

The EC50 is the midpoint of the concentration-response curve. One may read the melting point as the temperature of the solid-liquid transition. Broadly, the Ki is the dissociation constant of the complex between target and ligand, obtained from inhibition or displacement.

T2 sequence (P21554 whole entry): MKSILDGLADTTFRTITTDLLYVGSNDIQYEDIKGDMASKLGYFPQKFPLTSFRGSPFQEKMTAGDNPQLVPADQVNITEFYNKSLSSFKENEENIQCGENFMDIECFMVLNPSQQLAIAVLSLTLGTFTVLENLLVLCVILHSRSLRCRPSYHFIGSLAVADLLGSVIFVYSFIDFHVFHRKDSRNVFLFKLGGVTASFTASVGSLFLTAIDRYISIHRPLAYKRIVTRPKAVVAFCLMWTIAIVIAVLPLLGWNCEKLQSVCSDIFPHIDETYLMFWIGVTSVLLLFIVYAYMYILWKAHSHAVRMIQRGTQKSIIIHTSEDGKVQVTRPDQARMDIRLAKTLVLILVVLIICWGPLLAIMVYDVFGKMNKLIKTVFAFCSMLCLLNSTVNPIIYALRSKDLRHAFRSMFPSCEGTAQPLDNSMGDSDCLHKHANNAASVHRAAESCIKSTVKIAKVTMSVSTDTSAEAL
T1 sequence (P34972 whole entry): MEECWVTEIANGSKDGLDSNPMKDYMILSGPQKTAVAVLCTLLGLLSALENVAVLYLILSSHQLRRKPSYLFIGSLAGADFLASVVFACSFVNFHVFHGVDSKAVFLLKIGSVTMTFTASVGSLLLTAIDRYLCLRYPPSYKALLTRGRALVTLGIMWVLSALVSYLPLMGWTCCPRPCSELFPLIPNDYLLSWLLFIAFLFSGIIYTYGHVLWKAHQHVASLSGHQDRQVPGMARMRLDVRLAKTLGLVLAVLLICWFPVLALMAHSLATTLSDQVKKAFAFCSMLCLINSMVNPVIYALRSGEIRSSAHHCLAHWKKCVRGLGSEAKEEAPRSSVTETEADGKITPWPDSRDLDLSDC

For the molecule `CC(C)(C)N1CC(=NS(=O)(=O)c2ccccc2)N(CC2CC2)C1=O` [Compound 10b, N-[1-tert-Butyl-3-cyclopropylmethyl-2-oxoimidazolidin-4-ylidene]benzenesulfonamide], the melting point was 114.5 to 115 °C. For the same molecule, on human CB2R [1], the “Effect on NKH-477-induced cAMP levels (functional behavior)” value (shortened to “Effect on NKH-477-induced cAMP levels”) is “typical agonist behavior” and the EC50 turned out to be 1260 nM. In addition, at human CB2R [2], the inhibitory constant (Ki) is 1.67 ± 0.16 µM and the inhibition at 25 µM was 73%. At human recombinant CB1R, the Ki is above 10 µM and the inhibition at 10 µM came to 10.5%.
With `CC(C)(C)N1CC(=NS(=O)(=O)c2cccc(Br)c2)N(CC2CC2)C1=O` [Compound 10e, 3-Bromo-N-[1-tert-Butyl-3-cyclopropylmethyl-2-oxoimidazolidin-4-ylidene]benzenesulfonamide], the melting point lay within 114 to 115 °C. Also, on human CB2R [1], the “Effect on NKH-477-induced cAMP levels” value is recorded as “typical agonist behavior” and the EC50 was 264 nM. At human CB2R [2], the Ki worked out at 0.34 ± 0.08 µM and the inhibition at 10 µM was 83.5%. Moreover, at human recombinant CB1R, the Ki is above 10 µM and the inhibition at 10 µM was determined as 10.8%.
`CS(=O)(=O)N=C1CN(C23CC4CC(CC(C4)C2)C3)C(=O)N1CC1CC1` [Compound 12a, N-[1-Adamant-1-yl-3-cyclopropylmethyl-2-oxoimidazolidin-4-ylidene]methanesulfonamide] displayed a melting point of 199.5 to 200 °C. Also, on human CB2R [1], the “Effect on NKH-477-induced cAMP levels” value is recorded as “typical agonist behavior” and the half-maximal effective concentration (EC50) was 2140 nM. Also, at human CB2R [2], the Ki turned out to be 0.28 ± 0.05 µM and the inhibition at 25 µM is 76.5%. Also, on human recombinant CB1R, the inhibition constant (Ki) amounted to 0.21 ± 0.004 µM and the inhibition at 25 µM is 76.5%.
For the molecule `O=C1N(CC2CC2)C(=NS(=O)(=O)c2ccccc2)CN1C12CC3CC(CC(C3)C1)C2` [Compound 12b, N-[1-Adamant-1-yl-3-cyclopropylmethyl-2-oxoimidazolidin-4-ylidene]benzenesulfonamide], the melting point was 198 to 198.5 °C. In addition, the “Effect on NKH-477-induced cAMP levels” value at human CB2R [1] is reported as “did not alter the level of cAMP”. Also, the “Maximum concentration that could be reached in the buffer solution used for the functional assay” value in data set [3] was 2.3 µM. Moreover, at human CB2R [2], the inhibitory constant (Ki) amounted to 0.26 ± 0.03 µM and the inhibition at 25 µM is 84.5%. Besides, the “Antagonism of JWH-133-induced inhibition of NKH-477-induced cAMP formation” value at human CB2R [4] is “did not antagonize the agonist challenge”. Moreover, on human recombinant CB1R, the Ki is above 10 µM and the inhibition at 25 µM was 29.5%.
In turn, `O=C1N(CC2CC2)C(=NS(=O)(=O)c2cccc(Br)c2)CN1C12CC3CC(CC(C3)C1)C2` [Compound 12e, N-[1-Adamant-1-yl-3-cyclopropylmethyl-2-oxoimidazolidin-4-ylidene]-3-bromo-1-benzenesulfonamide] registered a melting point of 138 to 138.5 °C. In addition, the “Effect on NKH-477-induced cAMP levels” value at human CB2R [1] is reported as “did not alter the level of cAMP”. For the same molecule, on human CB2R [2], the Ki was 0.16 ± 0.03 µM and the inhibition at 10 µM is 71.4%. Also, the “Antagonism of JWH-133-induced inhibition of NKH-477-induced cAMP formation” value at human CB2R [4] is “fully antagonize”. At human recombinant CB1R, the Ki is above 10 µM and the inhibition at 10 µM came to 5.07%.
As for `CCCC(C)(C)c1ccc2c(c1)OC(C)(C)[C@@H]1CC=C(C)C[C@@H]21` [JWH-133, reference compound], on human CB2R [4] (previously determined in separate experiments), the “EC80 concentration of agonist challenge” value was determined as 4000 nM.
